From patent EP0745599A2, “1-(3-Heterocyclylphenyl)-s-triazine-2,4,6-oxo or thiotrione herbicidal agents” (American Cyanamid Company, priority 1995, dated 1996)

What was measured:
Format in all cases: in vivo
Conditions in all cases: rated four to five weeks after treatment
[1] = test system: ABUTILON THEOPHRASTI, MEDIC.; experiment: Postemergence herbicidal evaluation, ABUTH (Velvetleaf)
Method: (§1) In the tests, seedling plants are grown in jiffy flats for about two weeks. The test compounds are dispersed in 50/50 acetone/water mixtures containing 0.5% TWEEN®20, a polyoxyethylene sorbitan monolaurate surfactant of Atlas Chemical Industries, in sufficient quantities to provide the equivalent of about 0.125 kg to 0.500 kg per hectare of active compound when applied to the plants through a spray nozzle operating at 40 psi for a predetermined time. After spraying, the plants are placed on greenhouse benches and are cared for in the usual manner, commensurate with conventional greenhouse practices. From four to five weeks after treatment, the seedling plants are examined and rated according to the rating system set forth below. Where more than one test is involved for a given compound, the data are averaged.
(§2) Results of herbicide evaluation are expressed on a rating scale (0-9). The scale is based upon a visual observation of plant stand, vigor, malformation, size, chlorosis and overall plant appearance as compared with a control.

ZEA MAYS L. [2] = experiment: Postemergence herbicidal evaluation, ZEAMX (Corn, Field)
Method: as §1, §2

[3] = test system: ORYZA SATIVA, L. TEBONNET; experiment: Postemergence herbicidal evaluation, ORYSAT (Rice, Tebonnet)
Method: as §1, §2

[4] = test system: GLYCINE MAX(L)MERR. CV. WILLIAMS; experiment: Preemergence herbicidal evaluation, GLXMAW (Soybean, Williams)
How it was run: (§3)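 Visual 0-9 ratings versus control covering stand, vigor, malformation, size and chlorosis, scored 4-5 weeks post-treatment. Test compound in aqueous acetone applied preemergence to freshly seeded soil cups at roughly 0.125-0.50 kg/ha, then kept under standard greenhouse conditions.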

[5] = test system: ECHINOCHLOA CRUS-GALLI, (L) BEAU; experiment: Preemergence herbicidal evaluation, ECHCG (Barnyardgrass)
How it was run: as §3

CHENOPODIUM ALBUM, L. [6] = experiment: Preemergence herbicidal evaluation, CHEAL (Lambsquarters, Common)
How it was run: as §3

GALIUM APARINE = experiment: Preemergence herbicidal evaluation, GALAP (Galium)
How it was run: as §3

CASSIA OBTUSIFOLIA, L. [7] = experiment: Postemergence herbicidal evaluation, CASOB (Sicklepod)
Method: as §1, §2

IPOMOEA SPP. = experiment: Preemergence herbicidal evaluation, IPOSS (Morningglory Spp.)
How it was run: as §3

[8] = test system: AMBROSIA ARTEMISIIFOLIA, L.; experiment: Preemergence herbicidal evaluation, AMBEL (Ragweed, Common)
How it was run: as §3

[9] = test system: TRITICUM AESTIVUM, CV. APOLLO; experiment: Preemergence herbicidal evaluation, TRZAWO (Wheat, Winter, CV. APOLLO)
How it was run: as §3

[10] = test system: ABUTILON THEOPHRASTI, MEDIC.; experiment: Preemergence herbicidal evaluation, ABUTH (Velvetleaf)
How it was run: as §3

[11] = test system: ECHINOCHLOA CRUS-GALLI, (L) BEAU; experiment: Postemergence herbicidal evaluation, ECHCG (Barnyardgrass)
How it was run: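 Two-week-old seedlings; spray 40 psi, 0.125–0.500 kg/ha in 50/50 acetone/water, 0.5% TWEEN®20. Greenhouse hold 4–5 wk. Visual 0–9 score (stand, vigor, malformation, size, chlorosis, appearance) vs control; repeats averaged.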

[12] = test system: AMBROSIA ARTEMISIIFOLIA, L.; experiment: Postemergence herbicidal evaluation, AMBEL (Ragweed, Common)
Method: as §1, §2

ZEA MAYS L. [13] = experiment: Preemergence herbicidal evaluation, ZEAMX (Corn, Field)
How it was run: as §3

CASSIA OBTUSIFOLIA, L. [14] = experiment: Preemergence herbicidal evaluation, CASOB (Sicklepod)
How it was run: as §3

[15] = test system: SETARIA VIRIDIS, (L) BEAU; experiment: Preemergence herbicidal evaluation, SETVI (Foxtail, Green)
How it was run: as §3

CHENOPODIUM ALBUM, L. [16] = experiment: Postemergence herbicidal evaluation, CHEAL (Lambsquarters, Common)
Method: as §1, §2

[17] = test system: ORYZA SATIVA, L. TEBONNET; experiment: Preemergence herbicidal evaluation, ORYSAT (Rice, Tebonnet)
How it was run: as §3

SMILES: CC(C)OC(=O)Cn1c(=O)n(C)c(=O)n(-c2cc(N3C(=O)C4=C(CCCC4)C3=O)c(F)cc2Cl)c1=O [Compound 4, Isopropyl 3-[2-chloro-5-(1-cyclohexene-1,2-dicarboximido)-4-fluorophenyl]tetrahydro-5-methyl-2,4,6-trioxo-s-triazine-1(2H)-acetate]
- Herbicide rating (0-9) ABUTH ([1]; 0.125 kg/ha): 9.0
- Herbicide rating (0-9) ABUTH ([1]; 0.250 kg/ha): 9.0
- Herbicide rating (0-9) ABUTH ([1]; 0.500 kg/ha): 9.0
- Herbicide rating (0-9) ZEAMX (ZEA MAYS L. [2]; 0.125 kg/ha): 4.5
- Herbicide rating (0-9) ZEAMX (ZEA MAYS L. [2]; 0.250 kg/ha): 4.5
- Herbicide rating (0-9) ZEAMX (ZEA MAYS L. [2]; 0.500 kg/ha): 4.5
- Herbicide rating (0-9) ORYSAT ([3]; 0.125 kg/ha): 4.0
- Herbicide rating (0-9) ORYSAT ([3]; 0.250 kg/ha): 4.0
- Herbicide rating (0-9) ORYSAT ([3]; 0.500 kg/ha): 4.0
- Herbicide rating (0-9) GLXMAW ([4]; 0.125 kg/ha): 0.0
- Herbicide rating (0-9) GLXMAW ([4]; 0.250 kg/ha): 0.0
- Herbicide rating (0-9) GLXMAW ([4]; 0.500 kg/ha): 0.0
- Herbicide rating (0-9) ECHCG ([5]; 0.125 kg/ha): 0.0
- Herbicide rating (0-9) ECHCG ([5]; 0.250 kg/ha): 0.0
- Herbicide rating (0-9) ECHCG ([5]; 0.500 kg/ha): 0.0
- Herbicide rating (0-9) CHEAL (CHENOPODIUM ALBUM, L. [6]; 0.125 kg/ha): 9.0
- Herbicide rating (0-9) CHEAL (CHENOPODIUM ALBUM, L. [6]; 0.250 kg/ha): 9.0
- Herbicide rating (0-9) CHEAL (CHENOPODIUM ALBUM, L. [6]; 0.500 kg/ha): 9.0
- Herbicide rating (0-9) GALAP (GALIUM APARINE; 0.125 kg/ha): 9.0
- Herbicide rating (0-9) GALAP (GALIUM APARINE; 0.250 kg/ha): 9.0
- Herbicide rating (0-9) GALAP (GALIUM APARINE; 0.500 kg/ha): 9.0

SMILES: COC(=O)Cn1c(=O)n(C)c(=O)n(-c2cc(N3C(=O)C4=C(CCCC4)C3=O)ccc2F)c1=O [Compound 5, Methyl 3-[5-(1-cyclohexene-1,2-dicarbox-imido)-2-fluorophenyl]tetrahydro-5-methyl-2,4,6-trioxo-s-triazine-1(2H)-acetate]
- Herbicide rating (0-9) CASOB (CASSIA OBTUSIFOLIA, L. [7]; 0.125 kg/ha): 0.0
- Herbicide rating (0-9) CASOB (CASSIA OBTUSIFOLIA, L. [7]; 0.250 kg/ha): 0.0
- Herbicide rating (0-9) CASOB (CASSIA OBTUSIFOLIA, L. [7]; 0.500 kg/ha): 0.0
- Herbicide rating (0-9) IPOSS (IPOMOEA SPP.; 0.125 kg/ha): 0.0
- Herbicide rating (0-9) IPOSS (IPOMOEA SPP.; 0.250 kg/ha): 0.0
- Herbicide rating (0-9) IPOSS (IPOMOEA SPP.; 0.500 kg/ha): 0.0
- Herbicide rating (0-9) AMBEL ([8]; 0.125 kg/ha): 0.0
- Herbicide rating (0-9) AMBEL ([8]; 0.250 kg/ha): 0.0
- Herbicide rating (0-9) AMBEL ([8]; 0.500 kg/ha): 0.0
- Herbicide rating (0-9) GLXMAW ([4]; 0.125 kg/ha): 0.0
- Herbicide rating (0-9) GLXMAW ([4]; 0.250 kg/ha): 0.0
- Herbicide rating (0-9) GLXMAW ([4]; 0.500 kg/ha): 0.0
- Herbicide rating (0-9) ECHCG ([5]; 0.125 kg/ha): 0.0
- Herbicide rating (0-9) ECHCG ([5]; 0.250 kg/ha): 0.0
- Herbicide rating (0-9) ECHCG ([5]; 0.500 kg/ha): 0.0
- Herbicide rating (0-9) TRZAWO ([9]; 0.125 kg/ha): 0.0
- Herbicide rating (0-9) TRZAWO ([9]; 0.250 kg/ha): 0.0
- Herbicide rating (0-9) TRZAWO ([9]; 0.500 kg/ha): 0.0
- Herbicide rating (0-9) ABUTH ([10]; 0.125 kg/ha): 0.0
- Herbicide rating (0-9) ABUTH ([10]; 0.250 kg/ha): 0.0
- Herbicide rating (0-9) ABUTH ([10]; 0.500 kg/ha): 0.0
- Herbicide rating (0-9) ECHCG ([11]; 0.125 kg/ha): 0.0
- Herbicide rating (0-9) ECHCG ([11]; 0.250 kg/ha): 0.0
- Herbicide rating (0-9) ECHCG ([11]; 0.500 kg/ha): 0.0
- Herbicide rating (0-9) AMBEL ([12]; 0.125 kg/ha): 2.0
- Herbicide rating (0-9) AMBEL ([12]; 0.250 kg/ha): 2.0
- Herbicide rating (0-9) AMBEL ([12]; 0.500 kg/ha): 2.0
- Herbicide rating (0-9) ZEAMX (ZEA MAYS L. [13]; 0.125 kg/ha): 0.0
- Herbicide rating (0-9) ZEAMX (ZEA MAYS L. [13]; 0.250 kg/ha): 0.0
- Herbicide rating (0-9) ZEAMX (ZEA MAYS L. [13]; 0.500 kg/ha): 0.0
- Herbicide rating (0-9) CASOB (CASSIA OBTUSIFOLIA, L. [14]; 0.125 kg/ha): 0.0
- Herbicide rating (0-9) CASOB (CASSIA OBTUSIFOLIA, L. [14]; 0.250 kg/ha): 0.0
- Herbicide rating (0-9) CASOB (CASSIA OBTUSIFOLIA, L. [14]; 0.500 kg/ha): 0.0
- Herbicide rating (0-9) CHEAL (CHENOPODIUM ALBUM, L. [6]; 0.125 kg/ha): 0.0
- Herbicide rating (0-9) CHEAL (CHENOPODIUM ALBUM, L. [6]; 0.250 kg/ha): 0.0
- Herbicide rating (0-9) CHEAL (CHENOPODIUM ALBUM, L. [6]; 0.500 kg/ha): 0.0
- Herbicide rating (0-9) SETVI ([15]; 0.125 kg/ha): 0.0
- Herbicide rating (0-9) SETVI ([15]; 0.250 kg/ha): 0.0
- Herbicide rating (0-9) SETVI ([15]; 0.500 kg/ha): 0.0
- Herbicide rating (0-9) GALAP (GALIUM APARINE; 0.125 kg/ha): 0.0
- Herbicide rating (0-9) GALAP (GALIUM APARINE; 0.250 kg/ha): 0.0
- Herbicide rating (0-9) GALAP (GALIUM APARINE; 0.500 kg/ha): 0.0
- Herbicide rating (0-9) CHEAL (CHENOPODIUM ALBUM, L. [16]; 0.125 kg/ha): 0.0
- Herbicide rating (0-9) CHEAL (CHENOPODIUM ALBUM, L. [16]; 0.250 kg/ha): 0.0
- Herbicide rating (0-9) CHEAL (CHENOPODIUM ALBUM, L. [16]; 0.500 kg/ha): 0.0
- Herbicide rating (0-9) ORYSAT ([17]; 0.125 kg/ha): 0.0
- Herbicide rating (0-9) ORYSAT ([17]; 0.250 kg/ha): 0.0
- Herbicide rating (0-9) ORYSAT ([17]; 0.500 kg/ha): 0.0
